{"source": "patent EP0986381B1", "about": "“USE OF DITERPENES LIKE HYPOESTOXIDES FOR THE MANUFACTURE OF A MEDICAMENT FOR IMMUNOSUPPRESSION, ANTICANCER AND ANTIVIRAL TREATMENT” (Immune Modulation, Inc., priority 1997, dated 1998)", "tested_on": "one-way MLR-generated human T-lymphocyte-mediated cytolysis", "experiment": "Cytolysis by CTLs generated in one-way MLR, 51Cr-release assay", "assay_type": "cell-based", "settings": "T-cell, 1.0 µg/mL JO-4 during 5-7 day one-way MLR, four hour 51Cr-release, read-out: inhibition of the lytic capability of cytotoxic T-cells", "description": "The \"one-way MLR\" was set up in tissue culture flasks with mononuclear cells from two different donors as in the \"two-way MLR\" described above. However, in \"one-way MLR\", one of the two mononuclear leukocyte populations was rendered incapable of proliferation by treatment with mitomycin C, an antimitotic drug, prior to culture. In this \"one-way MLR\", the treated cells served exclusively as stimulators and the untreated cells, still capable of proliferation, served as the responders. The responder cells, during a 5-7 day culture period, expressed the CD8+ phenotype but not the CD4+. These CD8+ cells served exclusively as cytolytic T lymphocytes (CTLs) which lyse target cells from the same individual as the original stimulator cell population. In transplantation, these MHC-restricted cytotoxic CD8+ T-cells lyse MHC disparate donor tissue targets, leading to graft rejection (Abbas, A.K., eds., 1994, 2nd ed., Cellular and Molecular Immunology, W.B. Saunders Co., USA; Imagawa, D.K., et al., in Aggarwal, B.B., et al., eds., 1995, Human Cytokines: Their role in Disease and Therapy, Blackwell Science, Inc., Cambridge, MA).\nMononuclear cells of one donor were first treated with mitomycin C (Sigma Chem. Co., St. Louis, MO) (50 µg/50 x 10^6 cells) in 15 mL tubes wrapped in aluminum foil and incubated in a 37°C water bath for 1 hr. […]"}
{"smiles": "C=C1C(=O)C[C@H]2C[C@@H]3O[C@@]3(C)CC[C@@H]3O[C@@]3(C)C[C@@H](OC(C)=O)[C@H]1C2(C)C", "note": "[JO-4, hypoestoxide]", "values": [{"measurement": "inhibition at 1 µg/mL", "value": 82, "unit": "%"}]}
